Laboratory results reported in patent publication US20230211001A1, “Lysosomal Targeting Molecules Comprising Knottin Peptides And Related Compositions And Methods” (The Board of Trustees of the Leland Stanford Junior …, priority 2020, published 2023).
Non-standard residues stand in square brackets, D forms with d. Primed or numbered codes have the meaning given here. No end group written: not given here. Orn(N3)′ = its azide, alkyne or alkene has reacted where a group follows in round brackets; Orn(N3) = [N-]=[N+]=NCCC[C@H](N)C(=O)O; tri‑GalNAc‑DBCO = not defined here

Tests used:
[1] = biological target: integrins that bind to PIP (total surface level on HEPG2 cells); experiment: cell-based or functional assay
[2] = biological target: αvβ3 integrin on HEPG2 cells (UniProt P06756); experiment: cell-based or functional assay
αvβ3 integrin on HEPG2 cells, sequence (P06756 31-1048 limits assumed, chain 1 of 2): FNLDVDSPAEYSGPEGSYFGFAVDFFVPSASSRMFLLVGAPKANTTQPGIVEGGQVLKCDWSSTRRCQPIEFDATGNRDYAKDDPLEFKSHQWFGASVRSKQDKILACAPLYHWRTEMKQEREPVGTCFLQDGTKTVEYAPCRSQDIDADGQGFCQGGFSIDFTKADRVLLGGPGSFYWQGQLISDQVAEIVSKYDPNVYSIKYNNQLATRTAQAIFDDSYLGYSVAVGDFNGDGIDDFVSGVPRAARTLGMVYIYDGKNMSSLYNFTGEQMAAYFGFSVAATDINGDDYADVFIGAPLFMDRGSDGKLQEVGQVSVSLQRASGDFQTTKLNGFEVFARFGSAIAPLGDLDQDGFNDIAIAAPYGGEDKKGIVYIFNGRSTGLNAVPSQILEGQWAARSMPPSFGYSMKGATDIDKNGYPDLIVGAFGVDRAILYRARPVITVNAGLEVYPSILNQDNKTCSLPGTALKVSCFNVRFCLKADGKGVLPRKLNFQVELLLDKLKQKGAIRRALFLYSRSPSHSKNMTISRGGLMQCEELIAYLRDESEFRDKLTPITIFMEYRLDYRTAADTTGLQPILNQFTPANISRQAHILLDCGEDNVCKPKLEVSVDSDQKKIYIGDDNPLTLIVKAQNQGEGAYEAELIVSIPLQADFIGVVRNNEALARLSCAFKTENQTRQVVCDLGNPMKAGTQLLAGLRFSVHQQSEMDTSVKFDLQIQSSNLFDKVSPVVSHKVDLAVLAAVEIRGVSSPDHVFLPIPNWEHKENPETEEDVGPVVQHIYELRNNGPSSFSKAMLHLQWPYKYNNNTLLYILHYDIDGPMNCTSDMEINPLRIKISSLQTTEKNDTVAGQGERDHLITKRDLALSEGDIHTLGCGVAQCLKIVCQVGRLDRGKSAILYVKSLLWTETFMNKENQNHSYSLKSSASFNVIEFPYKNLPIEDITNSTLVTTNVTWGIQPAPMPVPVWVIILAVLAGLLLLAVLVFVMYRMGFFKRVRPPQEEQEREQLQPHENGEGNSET
αvβ3 integrin on HEPG2 cells, sequence (P05106 27-788 limits assumed, chain 2 of 2, further chain): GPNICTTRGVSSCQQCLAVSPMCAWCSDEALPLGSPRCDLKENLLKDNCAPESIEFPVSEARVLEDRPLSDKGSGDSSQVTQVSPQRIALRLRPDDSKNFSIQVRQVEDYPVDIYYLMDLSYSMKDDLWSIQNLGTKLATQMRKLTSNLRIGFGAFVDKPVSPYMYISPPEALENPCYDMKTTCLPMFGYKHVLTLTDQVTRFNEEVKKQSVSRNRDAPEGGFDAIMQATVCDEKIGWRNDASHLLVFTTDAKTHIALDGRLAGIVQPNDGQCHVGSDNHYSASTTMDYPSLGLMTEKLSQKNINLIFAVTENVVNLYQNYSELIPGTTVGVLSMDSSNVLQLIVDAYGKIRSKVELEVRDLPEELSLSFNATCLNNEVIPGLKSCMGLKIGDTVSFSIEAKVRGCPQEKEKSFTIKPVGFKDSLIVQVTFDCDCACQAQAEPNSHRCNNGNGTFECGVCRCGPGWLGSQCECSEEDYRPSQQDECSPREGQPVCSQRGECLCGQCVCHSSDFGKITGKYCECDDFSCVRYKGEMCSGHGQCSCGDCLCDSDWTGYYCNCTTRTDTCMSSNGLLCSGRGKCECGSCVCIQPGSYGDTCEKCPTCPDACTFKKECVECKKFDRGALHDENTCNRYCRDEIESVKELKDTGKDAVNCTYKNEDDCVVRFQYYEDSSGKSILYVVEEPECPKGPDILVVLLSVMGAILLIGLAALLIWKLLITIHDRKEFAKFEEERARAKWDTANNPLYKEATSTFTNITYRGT

integrin αvβ5 = biological target: T1, integrin αvβ5 (Homo sapiens, UniProt P06756+P18084); experiment: Cell surface integrin levels by live-cell flow cytometry in HEPG2 cells, anti-αvβ5 detection; format: cell-based; conditions: 44 h, 100 nM
T1 construct: endogenous in cells; host or cells: HEPG2
T1 sequence (P06756 31-889 limits assumed): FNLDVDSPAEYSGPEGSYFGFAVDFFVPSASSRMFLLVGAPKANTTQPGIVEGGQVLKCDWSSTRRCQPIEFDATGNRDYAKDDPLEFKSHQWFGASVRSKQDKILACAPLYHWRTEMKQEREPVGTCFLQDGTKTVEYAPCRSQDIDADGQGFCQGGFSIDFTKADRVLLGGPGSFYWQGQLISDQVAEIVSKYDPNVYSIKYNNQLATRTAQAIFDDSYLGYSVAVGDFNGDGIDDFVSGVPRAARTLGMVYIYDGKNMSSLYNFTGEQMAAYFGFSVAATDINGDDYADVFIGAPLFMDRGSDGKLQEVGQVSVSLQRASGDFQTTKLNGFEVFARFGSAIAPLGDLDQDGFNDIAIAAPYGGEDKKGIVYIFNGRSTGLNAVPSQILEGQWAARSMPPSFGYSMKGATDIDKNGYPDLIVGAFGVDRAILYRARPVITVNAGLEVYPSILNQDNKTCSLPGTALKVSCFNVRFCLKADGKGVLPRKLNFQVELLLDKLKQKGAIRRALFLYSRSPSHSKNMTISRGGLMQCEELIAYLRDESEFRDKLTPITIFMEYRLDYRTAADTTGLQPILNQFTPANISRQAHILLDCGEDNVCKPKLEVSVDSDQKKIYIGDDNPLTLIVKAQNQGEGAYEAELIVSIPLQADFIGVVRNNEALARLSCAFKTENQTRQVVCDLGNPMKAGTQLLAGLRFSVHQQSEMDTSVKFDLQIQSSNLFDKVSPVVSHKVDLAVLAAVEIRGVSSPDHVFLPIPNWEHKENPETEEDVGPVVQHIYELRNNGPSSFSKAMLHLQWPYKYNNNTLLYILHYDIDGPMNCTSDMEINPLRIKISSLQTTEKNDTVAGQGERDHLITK
T1 sequence (P06756 891-1048 partner limits assumed): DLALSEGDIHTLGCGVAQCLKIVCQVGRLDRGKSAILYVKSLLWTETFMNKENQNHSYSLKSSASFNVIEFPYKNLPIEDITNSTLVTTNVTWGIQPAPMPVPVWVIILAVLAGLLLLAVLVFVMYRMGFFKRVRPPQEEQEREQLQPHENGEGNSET
T1 sequence (P18084 24-799): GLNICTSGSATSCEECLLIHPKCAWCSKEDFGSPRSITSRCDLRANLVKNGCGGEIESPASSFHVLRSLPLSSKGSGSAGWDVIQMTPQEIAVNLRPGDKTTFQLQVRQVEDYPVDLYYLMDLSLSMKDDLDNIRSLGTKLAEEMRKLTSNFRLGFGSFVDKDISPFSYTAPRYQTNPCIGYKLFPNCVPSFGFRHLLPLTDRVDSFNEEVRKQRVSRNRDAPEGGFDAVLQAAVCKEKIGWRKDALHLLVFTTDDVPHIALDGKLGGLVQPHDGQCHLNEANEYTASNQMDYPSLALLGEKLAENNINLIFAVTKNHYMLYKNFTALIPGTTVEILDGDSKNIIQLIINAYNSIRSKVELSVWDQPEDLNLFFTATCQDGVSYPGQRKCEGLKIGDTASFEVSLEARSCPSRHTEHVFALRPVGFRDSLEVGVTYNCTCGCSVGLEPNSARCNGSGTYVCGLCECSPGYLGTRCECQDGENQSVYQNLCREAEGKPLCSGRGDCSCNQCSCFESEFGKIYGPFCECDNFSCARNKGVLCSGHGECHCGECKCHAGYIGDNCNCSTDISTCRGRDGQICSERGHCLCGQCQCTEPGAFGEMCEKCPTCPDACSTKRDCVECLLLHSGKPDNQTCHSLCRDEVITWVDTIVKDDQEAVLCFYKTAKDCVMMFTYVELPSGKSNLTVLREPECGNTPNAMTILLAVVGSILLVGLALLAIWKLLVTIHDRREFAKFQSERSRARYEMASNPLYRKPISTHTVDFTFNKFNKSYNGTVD
Method: (§1) FIG. 13 Panel A: Synthesis of PIP—GaINAc. Tri-GaINAc-DBCO was conjugated to PIP, a knottin peptide that binds to multiple integrins. Panel B: Degradation of cell surface integrins in HEPG2 cells as determined by live-cell flow cytometry following 44 h of treatment with 100 nM PIP or PIP—GaINAc. Anti-αvβ3, anti-αvβ5 and PIP-Fc fusion construct were used for detection. PIP was genetically fused to the Fc domain of a mouse IgG2a to generate a PIP-Fc fusion construct that measures the surface expression of integrins recognized by PIP. Panel C: Percent proliferation of HEPG2 cells following 44 h of treatment with 50 nM, 100 nM or 200 nM PIP or PIP—GaINAc. Proliferation was quantified by phase confluence over time using IncuCyte. Panel D: Time course of percent proliferation of HEPG2 cells during 44 h of treatment with 200 nM PIP or PIP—GaINAc. Panel E: Percent proliferation of HEPG2 cells for 6 d following wash-out. Cells were treated with 200 nM PIP or PIP—GaINAc on day 0. PIP+ and PIP—GaINAc+ indicate the conditions where cells were washed on day 4 and replaced with fresh medium without treatment. […] P values were determined by unpaired two-tailed t-tests.
(§2) The surface levels of integrins were measured by flow cytometry following treatment in HEPG2 cells. […] Nonetheless, the total surface level of integrins that bind to PIP was determined by utilizing a PIP-Fc fusion for staining of the Fc fragment. […]

[3] = test system: integrins that bind to PIP; experiment: Total surface level of integrins that bind to PIP, PIP-Fc fusion detection, HEPG2 cells; format: cell-based; conditions: 44 h, 100 nM, flow cytometry
Method: as §1, §2

HEPG2 cells = experiment: Antiproliferation assay (IncuCyte phase confluence); format: cell-based; conditions: for cell morphology: 100 nM, live imaging over 5 days following treatment; for antiproliferative phenotype after wash-out: 200 nM on day 0, washed on day 4, followed 6 d
Method: FIG. 13 Panel A: Synthesis of PIP—GaINAc. Tri-GaINAc-DBCO was conjugated to PIP, a knottin peptide that binds to multiple integrins. Panel B: Degradation of cell surface integrins in HEPG2 cells as determined by live-cell flow cytometry following 44 h of treatment with 100 nM PIP or PIP—GaINAc. Anti-αvβ3, anti-αvβ5 and PIP-Fc fusion construct were used for detection. PIP was genetically fused to the Fc domain of a mouse IgG2a to generate a PIP-Fc fusion construct that measures the surface expression of integrins recognized by PIP. Panel C: Percent proliferation of HEPG2 cells following 44 h of treatment with 50 nM, 100 nM or 200 nM PIP or PIP—GaINAc. Proliferation was quantified by phase confluence over time using IncuCyte. Panel D: Time course of percent proliferation of HEPG2 cells during 44 h of treatment with 200 nM PIP or PIP—GaINAc. Panel E: Percent proliferation of HEPG2 cells for 6 d following wash-out. Cells were treated with 200 nM PIP or PIP—GaINAc on day 0. PIP+ and PIP—GaINAc+ indicate the conditions where cells were washed on day 4 and replaced with fresh medium without treatment. PIP++ and PIP—GaINAc++ indicate the conditions where cells were washed on day 4 and replaced with fresh medium containing 200 nM PIP or PIP—GaINAc. Panel F: Live HEPG2 imaging by IncuCyte throughout the 5 d after treatment with 100 nM PIP or PIP—GaINAc. Images are representative of three independent experiments for F. Data in B-E represent three independent experiments, where B and C show the mean of three independent experiments ±s.e.m. P values were determined by unpaired two-tailed t-tests.
HEPG2 cells (100,000 cells per well in a 24-well plate) were treated with various concentrations of PIP or PIP—GaINAc. After treatments were added, cells were imaged every 4 h for the indicated times in the IncuCyte S3 Live-Cell Analysis system using the phase-imaging channel and a ×10 objective. For co-incubation experiments with ASF, 10 mg ml^−1 of ASF (Sigma-Aldrich) was treated with either PIP or PIP—GaINAc. The following analysis parameters were used to quantify phase confluence (%) in the Incucyte software: segmentation adjustment was set to 1, hole fill (μm2) was set to 300 and area minimum (μm^2) was set to 150. No other constraints were selected. Percent proliferation was then calculated by normalizing phase confluence values. Specifically, at any given timepoint n in the treatment time course (t=0→t=n), the change in confluence from t=0 to t=n (Δconfluence t=n) was calculated for each well as follows: Δconfluence t=n of well x=(confluence t=n of well x)−(confluence t=0 of well x), where x represents any given well in the experiment. This ensures that the value of each well is set to 0 at t=0. The average Δconfluence at the final time point of the untreated wells was set as the ‘max value’ (equivalent to 100% proliferation). Finally, data were normalized as follows:
% proliferationt=n=n of well x=(Δconfluencet=n of well x)/(max value),
where it is noted that while the metric is labeled as “% proliferation”, the effects quantitated are the summation of both cell proliferation and cell survival.

[4] = test system: tumor-associated integrins; conditions: αvβ3, αvβ5, αvβ6 and α5β1 integrins; cited from earlier work
[5] = test system: cation independent M6PR (CIM6PR); conditions: compared to mannose-6-phosphate glycans; cited from earlier work
[6] = compared to mannose-6-phosphate glycans; cited from earlier work
αvβ3 integrin = biological target: T2, αvβ3 integrin (Homo sapiens, UniProt P05106+P06756); experiment: Cell surface integrin levels by live-cell flow cytometry in HEPG2 cells, anti-αvβ3 detection; format: cell-based; conditions: 44 h, 100 nM
T2 construct: endogenous in cells; host or cells: HEPG2
T2 sequence (P06756 31-889 limits assumed): as the sequence (P06756 31-889 limits assumed) above
T2 sequence (P06756 891-1048 partner limits assumed): as the sequence (P06756 891-1048 partner limits assumed) above
T2 sequence (P05106 27-788): as the sequence (P05106 27-788 limits assumed, chain 2 of 2, further chain) above
Method: as §1, §2

Compound | depletion of total surface integrins that bind to PIP on HEPG2 cells, detected by PIP-Fc staining (flow cytometry) [1] [%] | effect on surface expression of integrin αvβ5 (integrin αvβ5) | integrins depleted (detection of PIP-Fc) [3] | cell morphology (HEPG2 cells) | antiproliferative phenotype after wash-out (HEPG2 cells) | relative binding affinity for the CIM6PR [5] | other results
polyspecific integrin-binding knottin peptide (PIP), synthesized with 5-azido-L-norvaline at position 15 and tyrosine at position 31 | 40 |  |  |  |  |  | 
PIP-GalNAc (PIP conjugated to a single tri-GalNAc-DBCO moiety) (peptide) | 60 |  |  |  |  |  | cell surface αvβ3 integrin level on HEPG2 cells, live-cell flow cytometry after 44 h of treatment with 100 nM [2]: 3 fold
PIP: polyspecific integrin-binding knottin peptide, 33-mer (SEQ ID NO:42); 5-azido-L-norvaline at position 15, tyrosine at position 31 (GCPRPRGDNPPLTC[Orn(N3)]QDSDCLAGCVCGPNGYCG; disulfide (positions not given here); not fully specified (bridges); also: further groups not given here) |  | increased the expression | 40% | epithelial-like clusters | wash-out rescued proliferation |  | binding affinity to tumor-associated integrins [4]: high affinity
C=CC(=O)OC[C@@H](O)[C@@H](O)[C@H](O)[C@H](O)C=O [mannose-6-acrylate glycans, mannose-6-acrylate] |  |  |  |  |  | 0.7 | serum stability [6]: better serum stability
mannose-6-carboxylate [mannose-6-carboxylate glycans] |  |  |  |  |  | 0.3 | 
PIP—GaINAc: PIP knottin with azido-norvaline site-specifically conjugated via a single tri-GaINAc-DBCO moiety (GCPRPRGDNPPLTC[Orn(N3)′](tri‑GalNAc‑DBCO)QDSDCLAGCVCGPNGYCG; disulfide (positions not given here); not fully specified (bridges); reading uncertain; also: further groups not given here) |  | modest degradation | about 60% | formed smaller, circular clusters | persisted after conjugate wash-out |  | depletion of cell surface αvβ3 integrin levels relative to PIP treatment alone (αvβ3 integrin): threefold; antiproliferative effect on co-incubation with asialofetuin (ASF), inhibitor of ASGPR (HEPG2 cells; 10 mg ml^−1 ASF): ablated the enhanced antiproliferative effect; inhibition of proliferation (HEPG2 cells; various concentrations (50, 100, 200 nM) and durations of treatment up to 44 h): substantially more effective at inhibiting proliferation than PIP
